# Test results published in patent US10131652B2, “Pyrimidinyloxy benzene derivatives as herbicides” (E. I. DU PONT DE NEMOURS AND COMPANY, priority 2014, dated 2018).
# Like-named read-outs stand apart in the source and are kept apart here.
# Columns and labels:
# Type in all cases: in vivo
# [1] = test system: oilseed rape (Brassica napus); experiment: Test D pre-/postemergence plant response; conditions: Brassica napus; for plant injury at 31 g/ha: 31 g ai/ha; for plant injury at 62 g/ha: 62 g ai/ha
# Procedure, shortened: (§1)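 Pre-/post-emergence greenhouse test. Pre: seeded loam+sand, sprayed same day. Post: 1–4 leaf plants (2–18 cm), peat/vermiculite mix. Formulation: non-phytotoxic solvent + surfactant. Scored visually d13–15, 0–100 vs control.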
# [2] = test system: large (Lg) crabgrass (Digitaria sanguinalis); experiment: Test D pre-/postemergence plant response; conditions: Digitaria sanguinalis; for pest or weed control at 16 g/ha: 16 g ai/ha; for pest or weed control at 31 g/ha: 31 g ai/ha; for pest or weed control at 62 g/ha: 62 g ai/ha; for pest or weed control at 125 g/ha: 125 g ai/ha
# Procedure, shortened: as §1
# [3] = test system: velvetleaf (Abutilon theophrasti); experiment: Test D pre-/postemergence plant response; conditions: Abutilon theophrasti; for pest or weed control at 31 g/ha: 31 g ai/ha; for pest or weed control at 62 g/ha: 62 g ai/ha; for pest or weed control at 125 g/ha: 125 g ai/ha
# Procedure, shortened: as §1
# [4] = test system: yellow nutsedge (Cyperus esculentus); experiment: Test D pre-/postemergence plant response; conditions: Cyperus; for pest or weed control at 31 g/ha: 31 g ai/ha; for pest or weed control at 62 g/ha: 62 g ai/ha; for pest or weed control at 125 g/ha: 125 g ai/ha
# Procedure, shortened: as §1
# [5] = test system: johnsongrass (Sorghum halepense); experiment: Test D pre-/postemergence plant response; conditions: Sorghum halepense; for pest or weed control at 31 g/ha: 31 g ai/ha; for pest or weed control at 62 g/ha: 62 g ai/ha; for pest or weed control at 125 g/ha: 125 g ai/ha
# Procedure, shortened: as §1
# [6] = test system: winter wheat (Triticum aestivum); experiment: Test D pre-/postemergence plant response; conditions: Triticum aestivum; for plant injury at 31 g/ha: 31 g ai/ha; for plant injury at 62 g/ha: 62 g ai/ha; for plant injury at 125 g/ha: 125 g ai/ha
# Procedure, shortened: as §1
# soybean (Glycine max) = experiment: Test D pre-/postemergence plant response; conditions: Glycine max; for plant injury at 31 g/ha: 31 g ai/ha; for plant injury at 62 g/ha: 62 g ai/ha
# Procedure, shortened: as §1
# [7] = test system: barnyardgrass (Echinochloa crus-galli); experiment: Test C flooded paddy test plant response; conditions: Echinochloa crus-galli; Flood, 250 g ai/ha; scale of 0 to 100 where 0 is no effect and 100 is complete control; 13 to 15 days; read-out: Barnyardgrass plant response rating
# Procedure, shortened: (§2)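 Flooded-pot format, 3 cm water over soil maintained for the test duration; test compounds dispensed into the water at the 2-leaf stage. Greenhouse holding 13 to 15 days. Plants evaluated visually relative to untreated controls, 0 meaning no effect and 100 complete control.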
# [8] = test system: ducksalad (Heteranthera limosa); experiment: Test C flooded paddy test plant response; conditions: Heteranthera limosa; Flood, 250 g ai/ha; scale of 0 to 100 where 0 is no effect and 100 is complete control; 13 to 15 days; read-out: Ducksalad plant response rating
# Procedure, shortened: as §2
# rice (Oryza sativa) = experiment: Test C flooded paddy test plant response; conditions: Oryza sativa; Flood, 250 g ai/ha; scale of 0 to 100 where 0 is no effect and 100 is complete control; 13 to 15 days; read-out: Rice plant response rating
# Procedure, shortened: as §2
# [9] = test system: small-flower umbrella sedge (Cyperus difformis); experiment: Test C flooded paddy test plant response; conditions: Cyperus difformis; Flood, 250 g ai/ha; scale of 0 to 100 where 0 is no effect and 100 is complete control; 13 to 15 days; read-out: Sedge, Umbrella plant response rating
# Procedure, shortened: as §2
# wild oat (Avena fatua) = experiment: Test D postemergence plant response; conditions: Avena fatua, post-emergence
# Procedure, shortened: (§3)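 Plants grown in pots of peat moss–vermiculite medium with wetting agent and starter nutrients received postemergence applications of the formulated test chemicals at 2 to 18 cm height (1- to 4-leaf stage). After 13 to 15 days in a greenhouse, injury was scored visually against untreated controls, 0 (no effect) to 100 (complete control).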
# kochia (Kochia scoparia) = experiment: Test D postemergence plant response; conditions: Bassia scoparia, post-emergence
# Procedure, shortened: as §3
# [10] = test system: chickweed (common chickweed, Stellaria media); experiment: Test D postemergence plant response; conditions: Stellaria media, post-emergence
# Procedure, shortened: as §3
# [11] = pre-emergence, Preemergence, scale 0 to 100 (0 no effect, 100 complete control), read-out: Plant response rating, Oilseed Rape
# [12] = post-emergence, Postemergence, scale 0 to 100 (0 no effect, 100 complete control), read-out: Crabgrass, Large plant response rating
# [13] = post-emergence, Postemergence, scale 0 to 100, 0 no effect, 100 complete control, read-out: Plant response rating, Crabgrass, Large
# [14] = pre-emergence, Preemergence, scale 0 to 100 (0 no effect, 100 complete control), read-out: Plant response rating, Crabgrass, Large
# [15] = post-emergence, Postemergence, scale 0 to 100, 0 no effect, 100 complete control, read-out: Plant response rating, Velvetleaf
# [16] = pre-emergence, Preemergence, scale 0 to 100 (0 no effect, 100 complete control), read-out: Plant response rating, Velvetleaf
# [17] = post-emergence, Postemergence, scale 0 to 100, 0 no effect, 100 complete control, read-out: Plant response rating, Nutsedge, Yellow
# [18] = pre-emergence, Preemergence, scale 0 to 100 (0 no effect, 100 complete control), read-out: Plant response rating, Nutsedge, Yellow
# [19] = post-emergence, Postemergence, scale 0 to 100, 0 no effect, 100 complete control, read-out: Plant response rating, Johnsongrass
# [20] = pre-emergence, Preemergence, scale 0 to 100 (0 no effect, 100 complete control), read-out: Plant response rating, Johnsongrass
# [21] = post-emergence, Postemergence, scale 0 to 100, 0 no effect, 100 complete control, read-out: Plant response rating, Wheat
# [22] = pre-emergence, Preemergence, scale 0 to 100 (0 no effect, 100 complete control), read-out: Plant response rating, Wheat
# [23] = pre-emergence, Preemergence, scale 0 to 100 (0 no effect, 100 complete control), read-out: Plant response rating, Soybean
smiles,measurement,setting,value
"Fc1cccc(Oc2ncc(Cl)cn2)c1-c1cc(C(F)F)no1 [Compound 144, 5-chloro-2-[2-[3-(difluoromethyl)-5-isoxazolyl]-3-fluorophenoxy]pyrimidine]",plant injury at 31 g/ha,"[1]; post-emergence, Postemergence, scale 0 to 100 (0 no effect, 100 complete control), read-out: Oilseed Rape plant response rating",80%
same,plant injury at 62 g/ha,"[1]; post-emergence, Postemergence, scale 0 to 100, 0 no effect, 100 complete control, read-out: Plant response rating, Oilseed Rape",95%
same,plant injury at 125 g/ha,"[1]; pre-emergence, Preemergence, 125 g ai/ha, read-out: Plant response rating (scale 0 to 100), Oilseed Rape",100%
same,plant injury at 16 g/ha,"[1]; pre-emergence, Preemergence, 16 g ai/ha, scale 0 to 100 (0 no effect, 100 complete control), read-out: Plant response rating, Oilseed Rape",98%
same,plant injury at 31 g/ha,[1]; [11],100%
same,plant injury at 62 g/ha,[1]; [11],100%
same,pest or weed control at 16 g/ha,[2]; [12],5%
same,pest or weed control at 31 g/ha,[2]; [12],10%
same,pest or weed control at 62 g/ha,[2]; [13],15%
same,pest or weed control at 125 g/ha,[2]; [13],20%
same,pest or weed control at 125 g/ha,"[2]; pre-emergence, Preemergence, read-out: Plant response rating (scale 0 to 100), Crabgrass, Large",100%
same,pest or weed control at 16 g/ha,[2]; [14],90%
same,pest or weed control at 31 g/ha,[2]; [14],98%
same,pest or weed control at 62 g/ha,[2]; [14],100%
same,pest or weed control at 31 g/ha,"[3]; post-emergence, Postemergence, scale 0 to 100 (0 no effect, 100 complete control), read-out: Velvetleaf plant response rating",55%
same,pest or weed control at 62 g/ha,[3]; [15],75%
same,pest or weed control at 125 g/ha,[3]; [15],98%
same,pest or weed control at 125 g/ha,"[3]; pre-emergence, Preemergence, read-out: Plant response rating (scale 0 to 100), Velvetleaf",100%
same,pest or weed control at 16 g/ha,"[3]; pre-emergence, Preemergence, 16 g ai/ha, scale 0 to 100 (0 no effect, 100 complete control), read-out: Plant response rating, Velvetleaf",100%
same,pest or weed control at 31 g/ha,[3]; [16],100%
same,pest or weed control at 62 g/ha,[3]; [16],100%
same,pest or weed control at 31 g/ha,"[4]; post-emergence, Postemergence, scale 0 to 100 (0 no effect, 100 complete control), read-out: Nutsedge, Yellow plant response rating",5%
same,pest or weed control at 62 g/ha,[4]; [17],5%
same,pest or weed control at 125 g/ha,[4]; [17],5%
same,pest or weed control at 125 g/ha,"[4]; pre-emergence, Preemergence, read-out: Plant response rating (scale 0 to 100), Nutsedge, Yellow",85%
same,pest or weed control at 16 g/ha,"[4]; pre-emergence, Preemergence, 16 g ai/ha, scale 0 to 100 (0 no effect, 100 complete control), read-out: Plant response rating, Nutsedge, Yellow",15%
same,pest or weed control at 31 g/ha,[4]; [18],30%
same,pest or weed control at 62 g/ha,[4]; [18],50%
same,pest or weed control at 31 g/ha,"[5]; post-emergence, Postemergence, scale 0 to 100 (0 no effect, 100 complete control), read-out: Johnsongrass plant response rating",10%
same,pest or weed control at 62 g/ha,[5]; [19],10%
same,pest or weed control at 125 g/ha,[5]; [19],50%
same,pest or weed control at 125 g/ha,"[5]; pre-emergence, Preemergence, read-out: Plant response rating (scale 0 to 100), Johnsongrass",100%
same,pest or weed control at 16 g/ha,"[5]; pre-emergence, Preemergence, 16 g ai/ha, scale 0 to 100 (0 no effect, 100 complete control), read-out: Plant response rating, Johnsongrass",20%
same,pest or weed control at 31 g/ha,[5]; [20],75%
same,pest or weed control at 62 g/ha,[5]; [20],100%
same,plant injury at 31 g/ha,"[6]; post-emergence, Postemergence, scale 0 to 100 (0 no effect, 100 complete control), read-out: Wheat plant response rating",10%
same,plant injury at 62 g/ha,[6]; [21],10%
same,plant injury at 125 g/ha,[6]; [21],10%
same,plant injury at 125 g/ha,"[6]; pre-emergence, Preemergence, read-out: Plant response rating (scale 0 to 100), Wheat",25%
same,plant injury at 16 g/ha,"[6]; pre-emergence, Preemergence, 16 g ai/ha, scale 0 to 100 (0 no effect, 100 complete control), read-out: Plant response rating, Wheat",0%
same,plant injury at 31 g/ha,[6]; [22],5%
same,plant injury at 62 g/ha,[6]; [22],25%
same,plant injury at 31 g/ha,"soybean (Glycine max); post-emergence, Postemergence, scale 0 to 100 (0 no effect, 100 complete control), read-out: Soybean plant response rating",80%
same,plant injury at 62 g/ha,"soybean (Glycine max); post-emergence, Postemergence, scale 0 to 100, 0 no effect, 100 complete control, read-out: Plant response rating, Soybean",95%
same,plant injury at 125 g/ha,"soybean (Glycine max); pre-emergence, Preemergence, 125 g ai/ha, read-out: Plant response rating (scale 0 to 100), Soybean",95%
same,plant injury at 16 g/ha,"soybean (Glycine max); pre-emergence, Preemergence, 16 g ai/ha, scale 0 to 100 (0 no effect, 100 complete control), read-out: Plant response rating, Soybean",35%
same,plant injury at 31 g/ha,soybean (Glycine max); [23],75%
same,plant injury at 62 g/ha,soybean (Glycine max); [23],90%
same,pest or weed control at 250 g/ha,[7],98%
same,pest or weed control at 250 g/ha,[8],90%
same,plant injury at 250 g/ha,rice (Oryza sativa),40%
same,pest or weed control at 250 g/ha,[9],85%
same,pest or weed control at 31 g/ha,"wild oat (Avena fatua); 31 g ai/ha, scale 0 to 100 (0 no effect, 100 complete control), read-out: Oat, Wild plant response rating",0%
same,pest or weed control at 62 g/ha,"wild oat (Avena fatua); 62 g ai/ha, scale 0 to 100, 0 no effect, 100 complete control, read-out: Plant response rating, Oat, Wild",5%
same,pest or weed control at 125 g/ha,"wild oat (Avena fatua); 125 g ai/ha, scale 0 to 100, 0 no effect, 100 complete control, read-out: Plant response rating, Oat, Wild",10%
same,pest or weed control at 31 g/ha,"kochia (Kochia scoparia); 31 g ai/ha, scale 0 to 100 (0 no effect, 100 complete control), read-out: Kochia plant response rating",100%
same,pest or weed control at 62 g/ha,"kochia (Kochia scoparia); 62 g ai/ha, scale 0 to 100, 0 no effect, 100 complete control, read-out: Plant response rating, Kochia",100%
same,pest or weed control at 125 g/ha,"kochia (Kochia scoparia); 125 g ai/ha, scale 0 to 100, 0 no effect, 100 complete control, read-out: Plant response rating, Kochia",100%
same,pest or weed control at 16 g/ha,"[10]; 16 g ai/ha, scale 0 to 100 (0 no effect, 100 complete control), read-out: Chickweed plant response rating",70%
same,pest or weed control at 31 g/ha,"[10]; 31 g ai/ha, scale 0 to 100 (0 no effect, 100 complete control), read-out: Chickweed plant response rating",80%
same,pest or weed control at 62 g/ha,"[10]; 62 g ai/ha, scale 0 to 100, 0 no effect, 100 complete control, read-out: Plant response rating, Chickweed",95%
same,pest or weed control at 125 g/ha,"[10]; 125 g ai/ha, scale 0 to 100, 0 no effect, 100 complete control, read-out: Plant response rating, Chickweed",95%
